Experimental data taken from PubChem BioAssay AID256 (DTP/NCI, 2004).
Toxic doses and inconclusive results are not listed.

Test system: CD2F1 mice, L1210 leukemia ip, survival T/C
Assay: NCI In Vivo Anticancer Drug Screen. Data for tumor model L1210 Leukemia (intraperitoneal) in CD2F1 (CDF1) mice
Details: endpoint: mean survival time, higher = longer survival
In short: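 Antitumor effect is scored in animals hosting a serially transplanted tumor. Values compare compound-dosed animals against vehicle-only controls as a simple quotient.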

[1] = dose: 25.0 mg/kg/injection, schedule: Q01DX009 (ip), vehicle: Klucel (hydroxypropylcellulose) (HPC)
[2] = dose: 75.0 mg/kg/injection, schedule: Q04DX003 (ip), vehicle: saline
[3] = dose: 150.0 mg/kg/injection, schedule: Q01DX009 (ip), vehicle: saline
[4] = dose: 150.0 mg/kg/injection, schedule: Q04DX003 (ip), vehicle: saline
[5] = dose: 300.0 mg/kg/injection, schedule: Q04DX003 (ip), vehicle: saline
[6] = dose: 100.0 mg/kg/injection, schedule: Q01DX009 (ip), vehicle: saline with Tween-80
[7] = dose: 100.0 mg/kg/injection, schedule: Q04DX003 (ip), vehicle: saline with Tween-80
[8] = dose: 200.0 mg/kg/injection, schedule: Q04DX003 (ip), vehicle: saline with Tween-80
[9] = dose: 400.0 mg/kg/injection, schedule: Q04DX003 (ip), vehicle: saline with Tween-80

For `CC1(C2CC(=O)c3c(O)ccc(O)c3C2)OCCO1` (centres undefined), the T/C [1] was 104 % of control, the T/C (dose: 50.0 mg/kg/injection, schedule: Q01DX009 (ip), vehicle: Klucel (hydroxypropylcellulose) (HPC)) was 109 % of control and the T/C (dose: 100.0 mg/kg/injection, schedule: Q01DX009 (ip), vehicle: Klucel (hydroxypropylcellulose) (HPC)) was 95 % of control. The T/C (dose: 200.0 mg/kg/injection, schedule: Q01DX009 (ip), vehicle: Klucel (hydroxypropylcellulose) (HPC)) was 98 % of control and the T/C (dose: 400.0 mg/kg/injection, schedule: Q01DX009 (ip), vehicle: Klucel (hydroxypropylcellulose) (HPC)) was 102 % of control.
With `C=CC1CC(=O)N1` (centres undefined) the T/C (dose: 75.0 mg/kg/injection, schedule: Q01DX009 (ip), vehicle: saline) was 102 % of control, the T/C [2] was 97 % of control and the T/C [3] was 103 % of control. The T/C [4] was 101 % of control, the T/C (dose: 300.0 mg/kg/injection, schedule: Q01DX009 (ip), vehicle: saline) was 103 % of control and the T/C [5] was 95 % of control.
In the case of `CC(C)(C)C(=O)C#Cc1ccccc1`, the T/C (dose: 25.0 mg/kg/injection, schedule: Q01DX009 (ip), vehicle: saline) is reported as 94 % of control and the T/C (dose: 50.0 mg/kg/injection, schedule: Q01DX009 (ip), vehicle: saline) is reported as 97 % of control.
In the case of `CCOC(=O)CC(=O)C(F)(F)F.[Cu+2]`, the T/C (dose: 2.5 mg/kg/injection, schedule: Q01DX009 (ip), vehicle: saline with Tween-80) is reported as 98 % of control, the T/C (dose: 5.0 mg/kg/injection, schedule: Q01DX009 (ip), vehicle: saline with Tween-80) is reported as 98 % of control and the T/C (dose: 10.0 mg/kg/injection, schedule: Q01DX009 (ip), vehicle: saline with Tween-80) is reported as 95 % of control.
With `O=C(O)C(Br)CCC(Br)C(=O)O` (centres undefined) the T/C (dose: 100.0 mg/kg/injection, schedule: Q01DX001 (ip), vehicle: other) was 102 % of control, the T/C (dose: 200.0 mg/kg/injection, schedule: Q01DX001 (ip), vehicle: other) was 102 % of control and the T/C (dose: 400.0 mg/kg/injection, schedule: Q01DX001 (ip), vehicle: other) was 97 % of control.
For `COc1ccc(CC(N)C(=O)NC2C(CO)OC(n3cnc4c(N)ncnc43)C2O)cc1` (centres undefined), the T/C (dose: 75.0 mg/kg/injection, schedule: Q01DX001 (ip), vehicle: saline) was 100 % of control, the T/C (dose: 150.0 mg/kg/injection, schedule: Q01DX001 (ip), vehicle: saline) was 95 % of control and the T/C (dose: 300.0 mg/kg/injection, schedule: Q01DX001 (ip), vehicle: saline) was 100 % of control.
In the case of `O=[N+]([O-])C(CO)(CO)CO`, the T/C (dose: 100.0 mg/kg/injection, schedule: Q01DX009 (ip), vehicle: saline) is reported as 98 % of control, the T/C (dose: 200.0 mg/kg/injection, schedule: Q01DX009 (ip), vehicle: saline) is reported as 96 % of control and the T/C (dose: 400.0 mg/kg/injection, schedule: Q01DX009 (ip), vehicle: saline) is reported as 104 % of control.
In the case of `Cc1cccc(C)c1Nc1n[nH]c(=S)s1`, the T/C (dose: 100.0 mg/kg/injection, schedule: Q01DX001 (ip), vehicle: Klucel (hydroxypropylcellulose) (HPC)) is reported as 97 % of control, the T/C (dose: 200.0 mg/kg/injection, schedule: Q01DX001 (ip), vehicle: Klucel (hydroxypropylcellulose) (HPC)) is reported as 101 % of control and the T/C (dose: 400.0 mg/kg/injection, schedule: Q01DX001 (ip), vehicle: Klucel (hydroxypropylcellulose) (HPC)) is reported as 101 % of control.
`Nc1nc(NCCc2ccccc2)c2ncn(C3OC(CO)C(O)C3O)c2n1` (centres undefined) was tested, and the T/C (dose: 12.5 mg/kg/injection, schedule: Q01DX005 (ip), vehicle: other) was 102 % of control, the T/C (dose: 25.0 mg/kg/injection, schedule: Q01DX005 (ip), vehicle: other) was 98 % of control and the T/C (dose: 50.0 mg/kg/injection, schedule: Q01DX005 (ip), vehicle: other) was 104 % of control. The T/C (dose: 100.0 mg/kg/injection, schedule: Q01DX005 (ip), vehicle: other) was 108 % of control.
`CCCCCCCCCCCCCCCCNCC(O)CN` (centres undefined) was tested, and the T/C (dose: 12.5 mg/kg/injection, schedule: Q04DX002 (ip), vehicle: saline) was 95 % of control, the T/C (dose: 25.0 mg/kg/injection, schedule: Q04DX002 (ip), vehicle: saline) was 106 % of control and the T/C (dose: 50.0 mg/kg/injection, schedule: Q04DX002 (ip), vehicle: saline) was 103 % of control.
For `O=C1NCCN1c1ccc([N+](=O)[O-])cc1`, the T/C (dose: 12.5 mg/kg/injection, schedule: Q01DX009 (ip), vehicle: other) was 89 % of control, the T/C (dose: 25.0 mg/kg/injection, schedule: Q01DX009 (ip), vehicle: other) was 103 % of control and the T/C (dose: 50.0 mg/kg/injection, schedule: Q01DX009 (ip), vehicle: other) was 94 % of control. The T/C (dose: 100.0 mg/kg/injection, schedule: Q01DX009 (ip), vehicle: other) was 96 % of control and the T/C (dose: 200.0 mg/kg/injection, schedule: Q01DX009 (ip), vehicle: other) was 96 % of control.
With `CC(=O)c1ccccc1OC(=O)c1ccccc1` the T/C [6] was 100 % of control, the T/C [7] was 107 % of control and the T/C (dose: 200.0 mg/kg/injection, schedule: Q01DX009 (ip), vehicle: saline with Tween-80) was 91 % of control. The T/C [8] was 101 % of control, the T/C (dose: 400.0 mg/kg/injection, schedule: Q01DX009 (ip), vehicle: saline with Tween-80) was 93 % of control and the T/C [9] was 104 % of control.
With `CCOc1ccc(/C=N/NC(=O)c2ccccc2NC(=O)C2CC2)cc1OC` the T/C (dose: 100.0 mg/kg/injection, schedule: Q01DX001 (ip), vehicle: saline with Tween-80) was 98 % of control, the T/C (dose: 200.0 mg/kg/injection, schedule: Q01DX001 (ip), vehicle: saline with Tween-80) was 94 % of control and the T/C (dose: 400.0 mg/kg/injection, schedule: Q01DX001 (ip), vehicle: saline with Tween-80) was 94 % of control.
In the case of `O=c1[nH]c(=O)n(C2OC(CO)C(O)C2O)nc1SCc1ccccc1` (centres undefined), the T/C (dose: 12.5 mg/kg/injection, schedule: Q01DX005 (ip), vehicle: distilled water + Tween-80) is reported as 100 % of control, the T/C (dose: 25.0 mg/kg/injection, schedule: Q01DX005 (ip), vehicle: distilled water + Tween-80) is reported as 97 % of control and the T/C (dose: 50.0 mg/kg/injection, schedule: Q01DX005 (ip), vehicle: distilled water + Tween-80) is reported as 101 % of control. For the same compound, the T/C (dose: 100.0 mg/kg/injection, schedule: Q01DX005 (ip), vehicle: distilled water + Tween-80) was 97 % of control and the T/C (dose: 200.0 mg/kg/injection, schedule: Q01DX005 (ip), vehicle: distilled water + Tween-80) was 97 % of control.
With `COC(=O)C1C2C(=O)NC(=O)C2C(c2ccc(-c3ccccc3)cc2)N1C1CCCCC1` (centres undefined) the T/C [7] was 105 % of control, the T/C [8] was 100 % of control and the T/C [9] was 103 % of control.
In the case of `C#CCCCCCC#[C][Hg][C]#CCCCCCC#C.C#CCCCCCC#[C][Hg][C]#CCCCCCC#C`, the T/C [2] is reported as 91 % of control, the T/C [3] is reported as 91 % of control and the T/C [4] is reported as 94 % of control. For the same compound, the T/C [5] was 94 % of control.
For `COc1cc(N2C(N)=NC(N)=NC2(C)C)cc(OC)c1OC`, the T/C (dose: 6.25 mg/kg/injection, schedule: Q04DX003 (ip), vehicle: saline) was 97 % of control, the T/C (dose: 12.5 mg/kg/injection, schedule: Q04DX003 (ip), vehicle: saline) was 102 % of control and the T/C (dose: 25.0 mg/kg/injection, schedule: Q04DX003 (ip), vehicle: saline) was 102 % of control.
For `CC(=O)[O][Hg][c]1s[c]([Hg][O]C(C)=O)[c]([Hg][O]C(C)=O)[c]1[Hg][O]C(C)=O`, the T/C (dose: 1.5 mg/kg/injection, schedule: Q01DX009 (ip), vehicle: saline sonified) was 96 % of control, the T/C (dose: 3.0 mg/kg/injection, schedule: Q01DX009 (ip), vehicle: saline sonified) was 98 % of control and the T/C (dose: 6.0 mg/kg/injection, schedule: Q01DX009 (ip), vehicle: saline sonified) was 106 % of control. The T/C (dose: 6.25 mg/kg/injection, schedule: Q01DX009 (ip), vehicle: Klucel (hydroxypropylcellulose) (HPC)) was 101 % of control, the T/C (dose: 6.25 mg/kg/injection, schedule: Q04DX003 (ip), vehicle: saline with Tween-80) was 104 % of control and the T/C (dose: 12.5 mg/kg/injection, schedule: Q01DX009 (ip), vehicle: Klucel (hydroxypropylcellulose) (HPC)) was 106 % of control. For the same compound, the T/C [1] was 104 % of control.
With `O=C(O)C[N-]CC[N-]CC(=O)O.[Cl][Pt+2][Cl]` the T/C (dose: 6.25 mg/kg/injection, schedule: Q04DX003 (ip), vehicle: other) was 101 % of control, the T/C (dose: 12.5 mg/kg/injection, schedule: Q04DX003 (ip), vehicle: other) was 100 % of control and the T/C (dose: 25.0 mg/kg/injection, schedule: Q04DX003 (ip), vehicle: other) was 104 % of control. For the same compound, the T/C (dose: 50.0 mg/kg/injection, schedule: Q04DX003 (ip), vehicle: other) was 109 % of control.
With `N=C1c2ccccc2-c2ccccc21` the T/C (dose: 50.0 mg/kg/injection, schedule: Q01DX009 (ip), vehicle: saline with Tween-80) was 101 % of control and the T/C [6] was 96 % of control.
In the case of `CN(C)N=Nc1ccccc1`, the T/C (dose: 37.5 mg/kg/injection, schedule: Q01DX009 (ip), vehicle: Klucel (hydroxypropylcellulose) (HPC)) is reported as 158 % of control and the T/C (dose: 75.0 mg/kg/injection, schedule: Q01DX009 (ip), vehicle: Klucel (hydroxypropylcellulose) (HPC)) is reported as 106 % of control.
